Laboratory results published in PMC10885153, “Membrane Permeability in a Large Macrocyclic Peptide Driven by a Saddle-Shaped Conformation” (Journal of the American Chemical Society, 2024).
Positions of bridges follow the written chain, without caps; N, C: chain ends. Non-standard residues stand in square brackets, D forms with d. Residues, ends and D or L forms follow the SMILES beside them. NMeC = CN[C@@H](CS)C(=O)O; NMeA = CN[C@@H](C)C(=O)O; dAbu = CC[C@@H](N)C(=O)O; dNMeA = CN[C@H](C)C(=O)O; Abu = CC[C@H](N)C(=O)O; Nleu = CC(C)CNCC(=O)O; NEtG = CCNCC(=O)O

Assay: in vitro
Details: PAMPA, pH 7.4, PAMPA Pe_avg
Protocol: Passive permeabilities of the 36 compounds were measured in multiplex as mixtures of six compounds each using the parallel artificial membrane permeability assay (PAMPA).[44]−[46]
Protocol is identical for both mixture and pure compound analysis.
Two of the following: Carbamazepine (CBZ), propranolol (Prop), and 1NMe35 were
included as internal standards and prepared as DMSO stocks at a concentration of 2 000 µM.
assay was carried out with a 96-well donor plate with 0.45 μ hydrophobic Immobilon-P membrane supports
(Millipore MAIPNTR10) and a 96-well Teflon acceptor plate (Millipore MSSACCEPTOR).
protocol then proceeded as follows:
Donor well solutions were prepared to a volume of 1 000 µL with the analytes as a solution in 1X
PBS pH 7.4 and 5% DMSO. To a 3 mL Eppendorf tube was added 950 µL of 1X PBS pH 7.4, 40
The solutions were vortexed and set aside.
Analyte – 10 µM per compound
A 1% solution of soy lecithin in dodecane was freshly prepared in a 3 mL Eppendorf tube and
sonicated (5 min) to ensure full dissolution of the lecithin. The donor membrane plate was turned
upside down and bottom of the membranes exposed. 5 µL of the 1% soy lecithin solution in
dodecane was then placed on the bottom of the membrane, allowing the drop to spread across the
full area of the membrane. Any membranes with visible damage were not used in the assay.
membranes were allowed to equilibrate for 5 min before loading.
Each well within the Teflon block acceptor plate that was to be used in the assay was then loaded
with 300 µL of 1X PBS pH 7.4 and 5% DMSO.
Working without break, 150 µL of each donor well solution was transferred from the to the 96-well
donor plate. Each mixture of interest was r un in quadruplicate, using a new well for each replicate.
As soon as the 96-well donor plate was finished being loaded, it was gently placed into the 96-well
Teflon acceptor plate, taking care not to trap any air bubbles beneath the membrane.
The donor/acceptor plates were covered gently with the lid to minimize evaporation and transferred
gently as a system to a sealed chamber and left to sit overnight at room temperature. The chamber
was kept from drying by placing a wet paper towel within to prevent evaporation.
After ~19-20 hours the donor plate was removed from the acceptor plate.
50 µL of each well (donor and acceptor) were transferred to a 96 -well plate and diluted with 50 µL
of methanol prior to heat sealing and quantification by UPLC -MS.

Row | SMILES | Papp at 10 µM
1 | CCOC(=O)[C@@H]1CSCC(=O)N[C@H](CC)C(=O)N(C)[C@@H](C)C(=O)N[C@H](CC(C)C)C(=O)N2CCC[C@@H]2C(=O)N(CC)CC(=O)N[C@H](CC(C)C)C(=O)N(C)[C@H](C)C(=O)N[C@@H](CC(C)C)C(=O)N1C [JF206_ADD_DDDD_Ethyl] ({CH2CO}-[dAbu][NMeA][dL][dP][NEtG][dL][dNMeA]L[NMeC]-OEt; thioether N-9) | 1.6 nm/s
2 | CCOC(=O)[C@@H]1CSCC(=O)N[C@@H](CC)C(=O)N(C)[C@@H](C)C(=O)N[C@@H](CC(C)C)C(=O)N2CCC[C@H]2C(=O)N(CC(C)C)CC(=O)N[C@@H](CC(C)C)C(=O)N(C)[C@H](C)C(=O)N[C@@H](CC(C)C)C(=O)N1C [JF206_ALL_LLLD_Isobutyl] ({CH2CO}-[Abu][NMeA]LP[Nleu]L[dNMeA]L[NMeC]-OEt; thioether N-9) | 1.39 nm/s
3 | CCOC(=O)[C@@H]1CSCC(=O)N[C@H](CC)C(=O)N(C)[C@@H](C)C(=O)N[C@H](CC(C)C)C(=O)N2CCC[C@@H]2C(=O)N(CC(C)C)CC(=O)N[C@@H](CC(C)C)C(=O)N(C)[C@H](C)C(=O)N[C@@H](CC(C)C)C(=O)N1C [JF206_ADD_DDLD_Isobutyl] ({CH2CO}-[dAbu][NMeA][dL][dP][Nleu]L[dNMeA]L[NMeC]-OEt; thioether N-9) | 1.25 nm/s
4 | CCOC(=O)[C@@H]1CSCC(=O)N[C@@H](CC)C(=O)N(C)[C@@H](C)C(=O)N[C@@H](CC(C)C)C(=O)N2CCC[C@H]2C(=O)N(CC)CC(=O)N[C@@H](CC(C)C)C(=O)N(C)[C@H](C)C(=O)N[C@@H](CC(C)C)C(=O)N1C [JF206_ALL_LLLD_Ethyl] ({CH2CO}-[Abu][NMeA]LP[NEtG]L[dNMeA]L[NMeC]-OEt; thioether N-9) | 0.14 nm/s
5 | CCOC(=O)[C@@H]1CSCC(=O)N[C@H](CC)C(=O)N(C)[C@@H](C)C(=O)N[C@@H](CC(C)C)C(=O)N2CCC[C@@H]2C(=O)N(CC(C)C)CC(=O)N[C@H](CC(C)C)C(=O)N(C)[C@H](C)C(=O)N[C@@H](CC(C)C)C(=O)N1C [JF206_ADD_DLDD_Isobutyl] ({CH2CO}-[dAbu][NMeA]L[dP][Nleu][dL][dNMeA]L[NMeC]-OEt; thioether N-9) | 1.18 nm/s
6 | CCOC(=O)[C@@H]1CSCC(=O)N[C@H](CC)C(=O)N(C)[C@@H](C)C(=O)N[C@@H](CC(C)C)C(=O)N2CCC[C@@H]2C(=O)N(CC)CC(=O)N[C@@H](CC(C)C)C(=O)N(C)[C@H](C)C(=O)N[C@@H](CC(C)C)C(=O)N1C [JF206_ADD_DLLD_Ethyl] ({CH2CO}-[dAbu][NMeA]L[dP][NEtG]L[dNMeA]L[NMeC]-OEt; thioether N-9) | 1.74 nm/s
7 | CCOC(=O)[C@@H]1CSCC(=O)N[C@H](CC)C(=O)N(C)[C@@H](C)C(=O)N[C@@H](CC(C)C)C(=O)N2CCC[C@@H]2C(=O)N(CC(C)C)CC(=O)N[C@H](CC(C)C)C(=O)N(C)[C@@H](C)C(=O)N[C@@H](CC(C)C)C(=O)N1C [JF206_ADD_DLDL_Isobutyl] ({CH2CO}-[dAbu][NMeA]L[dP][Nleu][dL][NMeA]L[NMeC]-OEt; thioether N-9) | 1.73 nm/s
8 | CCOC(=O)[C@@H]1CSCC(=O)N[C@@H](CC)C(=O)N(C)[C@@H](C)C(=O)N[C@@H](CC(C)C)C(=O)N2CCC[C@@H]2C(=O)N(CC(C)C)CC(=O)N[C@H](CC(C)C)C(=O)N(C)[C@H](C)C(=O)N[C@@H](CC(C)C)C(=O)N1C [JF206_ADL_LLDD_Isobutyl] ({CH2CO}-[Abu][NMeA]L[dP][Nleu][dL][dNMeA]L[NMeC]-OEt; thioether N-9) | 2.86 nm/s
9 | CCOC(=O)[C@@H]1CSCC(=O)N[C@H](CC)C(=O)N(C)[C@@H](C)C(=O)N[C@H](CC(C)C)C(=O)N2CCC[C@@H]2C(=O)N(CC)CC(=O)N[C@@H](CC(C)C)C(=O)N(C)[C@H](C)C(=O)N[C@@H](CC(C)C)C(=O)N1C [JF206_ADD_DDLD_Ethyl] ({CH2CO}-[dAbu][NMeA][dL][dP][NEtG]L[dNMeA]L[NMeC]-OEt; thioether N-9) | 0.05 nm/s
10 | CCOC(=O)[C@@H]1CSCC(=O)N[C@H](CC)C(=O)N(C)[C@@H](C)C(=O)N[C@@H](CC(C)C)C(=O)N2CCC[C@@H]2C(=O)N(CC)CC(=O)N[C@@H](CC(C)C)C(=O)N(C)[C@@H](C)C(=O)N[C@@H](CC(C)C)C(=O)N1C [JF206_ADD_DLLL_Ethyl] ({CH2CO}-[dAbu][NMeA]L[dP][NEtG]L[NMeA]L[NMeC]-OEt; thioether N-9) | 5.61 nm/s
11 | CCOC(=O)[C@@H]1CSCC(=O)N[C@@H](CC)C(=O)N(C)[C@@H](C)C(=O)N[C@@H](CC(C)C)C(=O)N2CCC[C@H]2C(=O)N(CC(C)C)CC(=O)N[C@H](CC(C)C)C(=O)N(C)[C@@H](C)C(=O)N[C@@H](CC(C)C)C(=O)N1C [JF206_ALL_LLDL_Isobutyl] ({CH2CO}-[Abu][NMeA]LP[Nleu][dL][NMeA]L[NMeC]-OEt; thioether N-9) | 0.93 nm/s
12 | CCOC(=O)[C@@H]1CSCC(=O)N[C@H](CC)C(=O)N(C)[C@@H](C)C(=O)N[C@@H](CC(C)C)C(=O)N2CCC[C@H]2C(=O)N(CC(C)C)CC(=O)N[C@H](CC(C)C)C(=O)N(C)[C@@H](C)C(=O)N[C@@H](CC(C)C)C(=O)N1C [JF206_ALD_DLDL_Isobutyl] ({CH2CO}-[dAbu][NMeA]LP[Nleu][dL][NMeA]L[NMeC]-OEt; thioether N-9) | 2.48 nm/s
13 | CCOC(=O)[C@@H]1CSCC(=O)N[C@H](CC)C(=O)N(C)[C@@H](C)C(=O)N[C@H](CC(C)C)C(=O)N2CCC[C@H]2C(=O)N(CC)CC(=O)N[C@@H](CC(C)C)C(=O)N(C)[C@H](C)C(=O)N[C@@H](CC(C)C)C(=O)N1C [JF206_ALD_DDLD_Ethyl] ({CH2CO}-[dAbu][NMeA][dL]P[NEtG]L[dNMeA]L[NMeC]-OEt; thioether N-9) | 0.07 nm/s
14 | CCOC(=O)[C@@H]1CSCC(=O)N[C@H](CC)C(=O)N(C)[C@@H](C)C(=O)N[C@@H](CC(C)C)C(=O)N2CCC[C@@H]2C(=O)N(CC(C)C)CC(=O)N[C@@H](CC(C)C)C(=O)N(C)[C@@H](C)C(=O)N[C@@H](CC(C)C)C(=O)N1C [JF206_ADD_DLLL_Isobutyl] ({CH2CO}-[dAbu][NMeA]L[dP][Nleu]L[NMeA]L[NMeC]-OEt; thioether N-9) | 6.88 nm/s
15 | CCOC(=O)[C@@H]1CSCC(=O)N[C@H](CC)C(=O)N(C)[C@@H](C)C(=O)N[C@H](CC(C)C)C(=O)N2CCC[C@H]2C(=O)N(CC(C)C)CC(=O)N[C@H](CC(C)C)C(=O)N(C)[C@@H](C)C(=O)N[C@@H](CC(C)C)C(=O)N1C [JF206_ALD_DDDL_Isobutyl] ({CH2CO}-[dAbu][NMeA][dL]P[Nleu][dL][NMeA]L[NMeC]-OEt; thioether N-9) | 5.56 nm/s
16 | CCOC(=O)[C@@H]1CSCC(=O)N[C@H](CC)C(=O)N(C)[C@@H](C)C(=O)N[C@H](CC(C)C)C(=O)N2CCC[C@H]2C(=O)N(CC(C)C)CC(=O)N[C@@H](CC(C)C)C(=O)N(C)[C@@H](C)C(=O)N[C@@H](CC(C)C)C(=O)N1C [JF206_ALD_DDLL_Isobutyl] ({CH2CO}-[dAbu][NMeA][dL]P[Nleu]L[NMeA]L[NMeC]-OEt; thioether N-9) | 0.75 nm/s
17 | CCOC(=O)[C@@H]1CSCC(=O)N[C@@H](CC)C(=O)N(C)[C@@H](C)C(=O)N[C@H](CC(C)C)C(=O)N2CCC[C@H]2C(=O)N(CC)CC(=O)N[C@@H](CC(C)C)C(=O)N(C)[C@H](C)C(=O)N[C@@H](CC(C)C)C(=O)N1C [JF206_ALL_LDLD_Ethyl] ({CH2CO}-[Abu][NMeA][dL]P[NEtG]L[dNMeA]L[NMeC]-OEt; thioether N-9) | 0.12 nm/s
18 | CCOC(=O)[C@@H]1CSCC(=O)N[C@H](CC)C(=O)N(C)[C@@H](C)C(=O)N[C@@H](CC(C)C)C(=O)N2CCC[C@H]2C(=O)N(CC(C)C)CC(=O)N[C@H](CC(C)C)C(=O)N(C)[C@H](C)C(=O)N[C@@H](CC(C)C)C(=O)N1C [JF206_ALD_DLDD_Isobutyl] ({CH2CO}-[dAbu][NMeA]LP[Nleu][dL][dNMeA]L[NMeC]-OEt; thioether N-9) | 0.38 nm/s
19 | CCOC(=O)[C@@H]1CSCC(=O)N[C@H](CC)C(=O)N(C)[C@@H](C)C(=O)N[C@@H](CC(C)C)C(=O)N2CCC[C@H]2C(=O)N(CC(C)C)CC(=O)N[C@@H](CC(C)C)C(=O)N(C)[C@@H](C)C(=O)N[C@@H](CC(C)C)C(=O)N1C [JF206_ALD_DLLL_Isobutyl] ({CH2CO}-[dAbu][NMeA]LP[Nleu]L[NMeA]L[NMeC]-OEt; thioether N-9) | 5.98 nm/s
20 | CCOC(=O)[C@@H]1CSCC(=O)N[C@H](CC)C(=O)N(C)[C@@H](C)C(=O)N[C@H](CC(C)C)C(=O)N2CCC[C@@H]2C(=O)N(CC)CC(=O)N[C@H](CC(C)C)C(=O)N(C)[C@@H](C)C(=O)N[C@@H](CC(C)C)C(=O)N1C [JF206_ADD_DDDL_Ethyl] ({CH2CO}-[dAbu][NMeA][dL][dP][NEtG][dL][NMeA]L[NMeC]-OEt; thioether N-9) | 1.62 nm/s
21 | CCOC(=O)[C@@H]1CSCC(=O)N[C@@H](CC)C(=O)N(C)[C@@H](C)C(=O)N[C@@H](CC(C)C)C(=O)N2CCC[C@H]2C(=O)N(CC)CC(=O)N[C@H](CC(C)C)C(=O)N(C)[C@@H](C)C(=O)N[C@@H](CC(C)C)C(=O)N1C [JF206_ALL_LLDL_Ethyl] ({CH2CO}-[Abu][NMeA]LP[NEtG][dL][NMeA]L[NMeC]-OEt; thioether N-9) | 0.03 nm/s
22 | CCOC(=O)[C@@H]1CSCC(=O)N[C@H](CC)C(=O)N(C)[C@@H](C)C(=O)N[C@H](CC(C)C)C(=O)N2CCC[C@H]2C(=O)N(CC)CC(=O)N[C@H](CC(C)C)C(=O)N(C)[C@H](C)C(=O)N[C@@H](CC(C)C)C(=O)N1C [JF206_ALD_DDDD_Ethyl] ({CH2CO}-[dAbu][NMeA][dL]P[NEtG][dL][dNMeA]L[NMeC]-OEt; thioether N-9) | 1.94 nm/s
23 | CCOC(=O)[C@@H]1CSCC(=O)N[C@@H](CC)C(=O)N(C)[C@@H](C)C(=O)N[C@H](CC(C)C)C(=O)N2CCC[C@H]2C(=O)N(CC)CC(=O)N[C@@H](CC(C)C)C(=O)N(C)[C@@H](C)C(=O)N[C@@H](CC(C)C)C(=O)N1C [JF206_ALL_LDLL_Ethyl] ({CH2CO}-[Abu][NMeA][dL]P[NEtG]L[NMeA]L[NMeC]-OEt; thioether N-9) | 0.15 nm/s
24 | CCOC(=O)[C@@H]1CSCC(=O)N[C@@H](CC)C(=O)N(C)[C@@H](C)C(=O)N[C@@H](CC(C)C)C(=O)N2CCC[C@@H]2C(=O)N(CC)CC(=O)N[C@H](CC(C)C)C(=O)N(C)[C@H](C)C(=O)N[C@@H](CC(C)C)C(=O)N1C [JF206_ADL_LLDD_Ethyl] ({CH2CO}-[Abu][NMeA]L[dP][NEtG][dL][dNMeA]L[NMeC]-OEt; thioether N-9) | 0.18 nm/s
